In patent publication US20210308089A1, “METHODS OF TREATING AND/OR PREVENTING VIRAL INFECTIONS AND/OR DISEASES CAUSED BY VIRUSES IN A SUBJECT IN NEED THEREOF” (priority 2020, published 2021):

Test system: patients of the REDUCE-IT and earlier EPA placebo-controlled trials
Assay: Example 3: adverse events by risk ratio, icosapent ethyl vs placebo (candidate categories; infectious disease terms of interest)
Settings: ISS

Structure (SMILES): CC/C=C\C/C=C\C/C=C\C/C=C\C/C=C\CCCC(=O)OCC [icosapent ethyl, eicosapentaenoic acid ethyl ester]
- AR: Cholesterol Increased (AE table): 0.9%
- AR: Chorea, Related (AE table): 0.7%
- AR: Constipation, Related (AE table): 0.5%
- AR: Diarrhea, Any Severity (AE table): 9.8%
- AR: Diarrhea, Mild Severity (AE table): 7.4%
- AR: Diarrhea, Related (AE table): 8.4%
- AR: Flatulence, Any Severity (AE table): 1.1%
- AR: Flatulence, Mild Severity (AE table): 0.9%
- AR: Flatulence, Related (AE table): 1.1%
- AR: Frequent Bowel Movements, Any Severity (AE table): 0.2%
- AR: Frequent Bowel Movements, Mild Severity (AE table): 0.2%
- AR: Frequent Bowel Movements, Related (AE table): 0.2%
- AR: Hot Flush (AE table): 0.6%
- AR: Huntington's Chorea, Any Severity (AE table): 1.0%
- AR: Huntington's Chorea, Mild Severity (AE table): 0.8%
- AR: Menorrhagia (AE table): 0.4%
- AR: Muscle spasms, Related (AE table): 0.2%
- AR: Nasopharyngitis, Any Severity (AE table): 4.3%
- AR: Nasopharyngitis, Mild Severity (AE table): 3.3%
- AR: Urine Protein Present (AE table): 0.1%
- AR: Weight loss, Related (AE table): 0.3%
- ARR: Cholesterol Increased (AE table): −1.4%
- ARR: Chorea, Related (AE table): −0.5%
- ARR: Constipation, Related (AE table): −0.8%
- ARR: Diarrhea, Any Severity (AE table): −1.6%
- ARR: Diarrhea, Mild Severity (AE table): −2.2%
- ARR: Diarrhea, Related (AE table): −1.5%
- ARR: Flatulence, Any Severity (AE table): −0.8%
- ARR: Flatulence, Mild Severity (AE table): −0.8%
- ARR: Flatulence, Related (AE table): −0.8%
- ARR: Frequent Bowel Movements, Any Severity (AE table): −0.6%
- ARR: Frequent Bowel Movements, Mild Severity (AE table): −0.4%
- ARR: Frequent Bowel Movements, Related (AE table): −0.6%
- ARR: Hot Flush (AE table): −0.3%
- ARR: Huntington's Chorea, Any Severity (AE table): −1.3%
- ARR: Huntington's Chorea, Mild Severity (AE table): −0.9%
- ARR: Menorrhagia (AE table): −0.6%
- ARR: Muscle spasms, Related (AE table): −0.0%
- ARR: Nasopharyngitis, Any Severity (AE table): −2.3%
- ARR: Nasopharyngitis, Mild Severity (AE table): −2.3%
- ARR: Urine Protein Present (AE table): −0.2%
- ARR: Weight loss, Related (AE table): −0.4%
- NNT: Cholesterol Increased (AE table): 69
- NNT: Chorea, Related (AE table): 187
- NNT: Constipation, Related (AE table): 122
- NNT: Diarrhea, Any Severity (AE table): 61
- NNT: Diarrhea, Mild Severity (AE table): 45
- NNT: Diarrhea, Related (AE table): 65
- NNT: Flatulence, Any Severity (AE table): 121
- NNT: Flatulence, Mild Severity (AE table): 129
- NNT: Flatulence, Related (AE table): 121
- NNT: Frequent Bowel Movements, Any Severity (AE table): 173
- NNT: Frequent Bowel Movements, Mild Severity (AE table): 259
- NNT: Frequent Bowel Movements, Related (AE table): 173
- NNT: Hot Flush (AE table): 292
- NNT: Huntington's Chorea, Any Severity (AE table): 77
- NNT: Huntington's Chorea, Mild Severity (AE table): 109
- NNT: Menorrhagia (AE table): 159
- NNT: Muscle spasms, Related (AE table): 2007
- NNT: Nasopharyngitis, Any Severity (AE table): 43
- NNT: Nasopharyngitis, Mild Severity (AE table): 43
- NNT: Urine Protein Present (AE table): 519
- NNT: Weight loss, Related (AE table): 230
- Risk Ratio (95% CI): Cholesterol Increased (AE table): 0.165 (0.036 to 0.759) 5
- Risk Ratio (95% CI): Chorea, Related (AE table): 0.445(0.107 to 1.853) 3
- Risk Ratio (95% CI): Constipation, Related (AE table): 0.148 (0.017 to 1.265) 5
- Risk Ratio (95% CI): Diarrhea, Any Severity (AE table): 0.847 (0.603 to 1.191) 1
- Risk Ratio (95% CI): Diarrhea, Mild Severity (AE table): 0.741 (0.498 to 1.103) 2
- Risk Ratio (95% CI): Diarrhea, Related (AE table): 0.834 (0.575 to 1.210) 1
- Risk Ratio (95% CI): Flatulence, Any Severity (AE table): 0.463 (0.152 to 1.408) 3
- Risk Ratio (95% CI): Flatulence, Mild Severity (AE table): 0.424 (0.125 to 1.440) 3
- Risk Ratio (95% CI): Flatulence, Related (AE table): 0.463 (0.152 to 1.408) 3
- Risk Ratio (95% CI): Frequent Bowel Movements, Any Severity (AE table): [0 drug vs 3 PBO]
- Risk Ratio (95% CI): Frequent Bowel Movements, Mild Severity (AE table): [0 drug vs 2 PBO]
- Risk Ratio (95% CI): Frequent Bowel Movements, Related (AE table): [0 drug vs 3 PBO]
- Risk Ratio (95% CI): Hot Flush (AE table): 0.556 (0.125 to 2.474) 3
- Risk Ratio (95% CI): Huntington's Chorea, Any Severity (AE table): 0.247 (0.067 to 0.908) 4
- Risk Ratio (95% CI): Huntington's Chorea, Mild Severity (AE table): 0.318 (0.083 to 1.223) 4
- Risk Ratio (95% CI): Menorrhagia (AE table): 0.185 (0.021 to 1.653) 5
- Risk Ratio (95% CI): Muscle spasms, Related (AE table): 0.741 (0.046 to 11.826) 2
- Risk Ratio (95% CI): Nasopharyngitis, Any Severity (AE table): 0.588 (0.344 to 1.004) 3
- Risk Ratio (95% CI): Nasopharyngitis, Mild Severity (AE table): 0.494 (0.265 to 0.921) 3
- Risk Ratio (95% CI): Urine Protein Present (AE table): [0 drug vs 1 PBO]
- Risk Ratio (95% CI): Weight loss, Related (AE table): 0.247 (0.026 to 2.369) 4
- ARR (Chorea, Related): −0.5%
- NNT (Chorea, Related): 187
- Risk Ratio (95% CI) (Chorea, Related): 0.445 (0.107 to 1.853) 3
- ARR (Constipation, Related): −0.8%
- NNT (Constipation, Related): 122
- Risk Ratio (95% CI) (Constipation, Related): 0.148 (0.017 to 1.265) 5
- ARR (Cough): 0.9%
- NNT (Cough): −112
- Risk Ratio (95% CI) (Cough): 1.928 (0.692 to 5.373) −3
- ARR (Diarrhea, Any Severity): −1.6%
- NNT (Diarrhea, Any Severity): 61
- Risk Ratio (95% CI) (Diarrhea, Any Severity): 0.847 (0.603 to 1.191) 1
- ARR (Diarrhea, Mild Severity): −2.2%
- NNT (Diarrhea, Mild Severity): 45
- Risk Ratio (95% CI) (Diarrhea, Mild Severity): 0.741 (0.498 to 1.103) 2
- ARR (Diarrhea, Related): −1.5%
- NNT (Diarrhea, Related): 65
- Risk Ratio (95% CI) (Diarrhea, Related): 0.834 (0.575 to 1.210) 1
- ARR (Flatulence, Any Severity): −0.8%
- NNT (Flatulence, Any Severity): 121
- Risk Ratio (95% CI) (Flatulence, Any Severity): 0.463 (0.152 to 1.408) 3
- ARR (Flatulence, Mild Severity): −0.8%
